Data from the NIST ThermoML archive (doi:10.1021/je200883w).
± gives the expanded uncertainty stated by the source.

Conditions: 101.33 kPa, Liquid; for viscosity: Concentric cylinders viscometry; for mass density: Vibrating tube method

CCCC[N+]1(C)CCCC1.O=S(=O)([O-])C(F)(F)F [1-butyl-1-methylpyrrolidinium trifluoromethanesulfonate]
Conditions	mass density [kg/m3]	viscosity [mPa·s]
283.15 K	1263.6 ± 1.6	414.9 ± 15
288.15 K	1259.9 ± 1.6	299.4 ± 10
293.15 K	1256.1 ± 1.6	221.7 ± 6.9
298.15 K	1252.4 ± 1.6	167.87 ± 4.9
303.15 K	1248.7 ± 1.6	129.71 ± 3.5
308.15 K	1245.1 ± 1.6	102.06 ± 2.6
313.15 K	1241.5 ± 1.6	81.62 ± 2
318.15 K	1238 ± 1.6	66.24 ± 1.6
323.15 K	1234.4 ± 1.6	54.48 ± 1.3
328.15 K	1230.8 ± 1.6	45.34 ± 1.1
333.15 K	1227.3 ± 1.6	38.16 ± 0.9
338.15 K	1223.8 ± 1.6	32.45 ± 0.76
343.15 K	1220.3 ± 1.6	27.84 ± 0.65
348.15 K	1216.8 ± 1.6	24.08 ± 0.56
353.15 K	1213.3 ± 1.6	21 ± 0.49
358.15 K	1209.7 ± 1.6	18.44 ± 0.43
363.15 K	1205.9 ± 1.5	16.29 ± 0.38
368.15 K	1202.5 ± 1.5	14.48 ± 0.33
373.15 K	1199.2 ± 1.5	12.95 ± 0.3

CCCCCCOS(=O)(=O)[O-].CC[n+]1ccn(C)c1 [3-ethyl-1-methyl-1H-imidazolium hexyl sulfate]
Conditions	mass density [kg/m3]	viscosity [mPa·s]
268.15 K	1151.4 ± 1.5	3425.9 ± 200
273.15 K	1147.9 ± 1.5	2124.1 ± 120
278.15 K	1144.4 ± 1.4	1362.1 ± 68
283.15 K	1140.9 ± 1.4	904.77 ± 41
288.15 K	1137.4 ± 1.4	620.25 ± 25
293.15 K	1133.8 ± 1.4	437.53 ± 16
298.15 K	1130.4 ± 1.4	316.78 ± 11
303.15 K	1127 ± 2	234.83 ± 7.4
308.15 K	1123.7 ± 1.4	177.81 ± 5.2
313.15 K	1120.5 ± 1.4	137.23 ± 3.8
318.15 K	1117.2 ± 1.4	107.82 ± 2.8
323.15 K	1114 ± 2	86.06 ± 2.1
328.15 K	1110.8 ± 1.4	69.71 ± 1.7
333.15 K	1107.6 ± 1.4	57.21 ± 1.4
338.15 K	1104.4 ± 1.4	47.52 ± 1.1
343.15 K	1101.2 ± 1.4	39.91 ± 0.94
348.15 K	1097.9 ± 1.4	33.86 ± 0.79
353.15 K	1094.5 ± 1.4	29 ± 0.68
358.15 K	1091.2 ± 1.4	25.04 ± 0.58
363.15 K	1088.1 ± 1.4	21.8 ± 0.51
368.15 K	1085.1 ± 1.4	19.11 ± 0.44
373.15 K	1082.3 ± 1.4	16.87 ± 0.39

CCCCCCCCCCCCCC[P+](CCCCCC)(CCCCCC)CCCCCC.FC(F)(F)C(F)(F)[P-](F)(F)(F)(C(F)(F)C(F)(F)F)C(F)(F)C(F)(F)F
Conditions	mass density [kg/m3]	viscosity [mPa·s]
268.15 K	1207.4 ± 1.5	3067.3 ± 180
273.15 K	1203.2 ± 1.5	2010 ± 110
278.15 K	1198.9 ± 1.5	1345.2 ± 66
283.15 K	1194.6 ± 1.5	928.39 ± 42
288.15 K	1190.3 ± 1.5	654.2 ± 27
293.15 K	1186 ± 1.5	471.76 ± 18
298.15 K	1181.7 ± 1.5	347.06 ± 12
303.15 K	1177.6 ± 1.5	260.12 ± 8.4
308.15 K	1173.5 ± 1.5	198.3 ± 6
313.15 K	1169.4 ± 1.5	153.61 ± 4.3
318.15 K	1165.3 ± 1.5	120.76 ± 3.2
323.15 K	1161.3 ± 1.5	96.23 ± 2.4
328.15 K	1157.3 ± 1.5	77.68 ± 1.9
333.15 K	1153.3 ± 1.5	63.45 ± 1.5
338.15 K	1149.3 ± 1.5	52.39 ± 1.2
343.15 K	1145.3 ± 1.4	43.71 ± 1
348.15 K	1141.2 ± 1.4	36.8 ± 0.87
353.15 K	1137 ± 1.4	31.27 ± 0.73
358.15 K	1132.7 ± 1.4	26.79 ± 0.63
363.15 K	1128.7 ± 1.4	23.12 ± 0.54
368.15 K	1124.9 ± 1.4	20.09 ± 0.47
373.15 K	1121.1 ± 1.4	17.57 ± 0.41

CCOS(=O)(=O)[O-].CCn1cc[n+](C)c1 [1-ethyl-3-methylimidazolium ethyl sulfate]
Conditions	mass density [kg/m3]	viscosity [mPa·s]
253.15 K	1270.6 ± 1.7	3146.4 ± 190
258.15 K	1266.9 ± 1.6	1789.6 ± 97
263.15 K	1263.3 ± 1.6	1094.4 ± 53
268.15 K	1259.5 ± 1.6	700.85 ± 30
273.15 K	1255.7 ± 1.6	466.03 ± 18
278.15 K	1252 ± 1.6	321.37 ± 11
283.15 K	1248.3 ± 1.6	229.15 ± 7.4
288.15 K	1244.8 ± 1.6	168.31 ± 5
293.15 K	1241.3 ± 1.6	126.89 ± 3.5
298.15 K	1237.8 ± 1.6	97.84 ± 2.5
303.15 K	1234.4 ± 1.6	77.01 ± 1.9
308.15 K	1231 ± 1.6	61.71 ± 1.5
313.15 K	1227.6 ± 1.6	50.25 ± 1.2
318.15 K	1224.2 ± 1.6	41.51 ± 0.99
323.15 K	1220.8 ± 1.6	34.73 ± 0.82
328.15 K	1217.4 ± 1.6	29.4 ± 0.69
333.15 K	1214 ± 1.6	25.15 ± 0.59
338.15 K	1210.6 ± 1.6	21.72 ± 0.51
343.15 K	1207.2 ± 1.5	18.91 ± 0.44
348.15 K	1203.8 ± 1.5	16.6 ± 0.38
353.15 K	1200.4 ± 1.5	14.68 ± 0.34
358.15 K	1197.2 ± 1.5	13.06 ± 0.3
363.15 K	1194.1 ± 1.5	11.69 ± 0.27
368.15 K	1191.1 ± 1.5	10.52 ± 0.24
373.15 K	1188.2 ± 1.5	9.518 ± 0.22

CCCCn1cc[n+](C)c1C.O=S(=O)([N-]S(=O)(=O)C(F)(F)F)C(F)(F)F
Conditions	mass density [kg/m3]	viscosity [mPa·s]
273.15 K	1443.3 ± 2	518.55 ± 20
278.15 K	1438.4 ± 2	353.44 ± 13
283.15 K	1433.5 ± 2	249.26 ± 8.2
288.15 K	1428.7 ± 2	180.5 ± 5.5
293.15 K	1424 ± 2	134.22 ± 3.8
298.15 K	1419.4 ± 1.9	102.19 ± 2.7
303.15 K	1414.8 ± 1.9	79.46 ± 2
308.15 K	1410.1 ± 1.9	62.97 ± 1.5
313.15 K	1405.5 ± 1.9	50.76 ± 1.2
318.15 K	1401 ± 1.9	41.53 ± 0.99
323.15 K	1396.4 ± 1.9	34.45 ± 0.82
328.15 K	1391.8 ± 1.9	28.91 ± 0.68
333.15 K	1387.3 ± 1.9	24.54 ± 0.58
338.15 K	1382.8 ± 1.9	21.03 ± 0.49
343.15 K	1378.4 ± 1.9	18.17 ± 0.42
348.15 K	1373.9 ± 1.9	15.83 ± 0.37
353.15 K	1369.3 ± 1.8	13.9 ± 0.32
358.15 K	1364.4 ± 1.8	12.3 ± 0.28
363.15 K	1359.8 ± 1.8	10.94 ± 0.25
368.15 K	1355.5 ± 1.8	9.794 ± 0.23
373.15 K	1351.3 ± 1.8	8.813 ± 0.2

CCCC[N+]1(C)CCCC1.O=S(=O)([N-]S(=O)(=O)C(F)(F)F)C(F)(F)F
Conditions	mass density [kg/m3]	viscosity [mPa·s]
278.15 K	1412.9 ± 1.9	230.3 ± 7.2
283.15 K	1408.3 ± 1.9	169.6 ± 5
288.15 K	1403.8 ± 1.9	128 ± 3.5
293.15 K	1399.3 ± 1.9	98.74 ± 2.6
298.15 K	1394.9 ± 1.9	77.65 ± 1.9
303.15 K	1390.5 ± 1.9	62.14 ± 1.5
308.15 K	1386.1 ± 1.9	50.52 ± 1.2
313.15 K	1381.8 ± 1.9	41.65 ± 0.99
318.15 K	1377.4 ± 1.9	34.78 ± 0.82
323.15 K	1373 ± 1.8	29.38 ± 0.69
328.15 K	1368.7 ± 1.8	25.07 ± 0.59
333.15 K	1364.3 ± 1.8	21.6 ± 0.5
338.15 K	1360 ± 1.8	18.77 ± 0.44
343.15 K	1355.7 ± 1.8	16.44 ± 0.38
348.15 K	1351.4 ± 1.8	14.5 ± 0.34
353.15 K	1346.9 ± 1.8	12.87 ± 0.3
358.15 K	1342.5 ± 1.8	11.5 ± 0.27
363.15 K	1338.3 ± 1.8	10.33 ± 0.24
368.15 K	1334.3 ± 1.8	9.32 ± 0.21
373.15 K	1330.3 ± 1.8	8.454 ± 0.19

COCC[N+]1(C)CCCC1.O=S(=O)([N-]S(=O)(=O)C(F)(F)F)C(F)(F)F
Conditions	mass density [kg/m3]	viscosity [mPa·s]
258.15 K	1494.1 ± 2.1	620.3 ± 25
263.15 K	1488.7 ± 2.1	412.3 ± 16
268.15 K	1483.6 ± 2.1	286.4 ± 9.8
273.15 K	1478.5 ± 2.1	204.56 ± 6.4
278.15 K	1473.7 ± 2.1	149.89 ± 4.3
283.15 K	1468.8 ± 2	112.96 ± 3
288.15 K	1464 ± 2	87.14 ± 2.2
293.15 K	1459.3 ± 2	68.61 ± 1.7
298.15 K	1454.7 ± 2	55.06 ± 1.3
303.15 K	1450 ± 2	44.9 ± 1.1
308.15 K	1445.2 ± 2	37.15 ± 0.88
313.15 K	1440.5 ± 2	31.15 ± 0.73
318.15 K	1435.9 ± 2	26.43 ± 0.62
323.15 K	1431.2 ± 2	22.66 ± 0.53
328.15 K	1426.6 ± 2	19.59 ± 0.46
333.15 K	1422 ± 1.9	17.09 ± 0.4
338.15 K	1417.4 ± 1.9	15.03 ± 0.35
343.15 K	1412.9 ± 1.9	13.32 ± 0.31
348.15 K	1408.2 ± 1.9	11.88 ± 0.27
353.15 K	1403.3 ± 1.9	10.66 ± 0.24
358.15 K	1398.6 ± 1.9	9.617 ± 0.22
363.15 K	1394.2 ± 1.9	8.718 ± 0.2
368.15 K	1389.9 ± 1.9	7.94 ± 0.18
373.15 K	1385.7 ± 1.9	7.263 ± 0.17

CCCC[N+]1(C)CCCC1.FC(F)(F)C(F)(F)[P-](F)(F)(F)(C(F)(F)C(F)(F)F)C(F)(F)C(F)(F)F
Conditions	mass density [kg/m3]	viscosity [mPa·s]
283.15 K	1599.8 ± 2.4	593.7 ± 24
288.15 K	1594.2 ± 2.3	409.8 ± 15
293.15 K	1588.6 ± 2.3	291.5 ± 9.9
298.15 K	1583.2 ± 2.3	213.1 ± 6.7
303.15 K	1577.9 ± 2.3	159.61 ± 4.6
308.15 K	1572.6 ± 2.3	122.18 ± 3.3
313.15 K	1567.4 ± 2.3	95.36 ± 2.4
318.15 K	1562.1 ± 2.3	75.75 ± 1.9
323.15 K	1556.9 ± 2.3	61.13 ± 1.5
328.15 K	1551.7 ± 2.2	50.03 ± 1.2
333.15 K	1546.6 ± 2.2	41.48 ± 0.98
338.15 K	1541.5 ± 2.2	34.79 ± 0.82
343.15 K	1536.3 ± 2.2	29.49 ± 0.69
348.15 K	1531.1 ± 2.2	25.24 ± 0.59
353.15 K	1525.7 ± 2.2	21.79 ± 0.51
358.15 K	1520.4 ± 2.2	18.97 ± 0.44
363.15 K	1515.3 ± 2.2	16.63 ± 0.39
368.15 K	1510.4 ± 2.1	14.68 ± 0.34
373.15 K	1505.5 ± 2.1	13.04 ± 0.3
